Data: US4157399A, “Benzo(B)thiophenes” (Parcor, priority 1976, dated 1979)
Structures can show the parent of a compound that is named as a salt.

How the values were obtained:
Format in all cases: in vivo
[1] = Propylthiouracil test, free and total cholesterol in the rat; settings: 11th day; propylthiouracil-treated rats; oral 100 mg/Kg
Procedure: Experiments were carried out according to the propylthiouracil test (RANNEY & Coll., J. PHARMACOL. EXPER. THERAP. 1963, 142, 132-136). The propyl-thiouracil administered to adult rats has the property of making them hypercholesterolemic: the plasma level of cholesterol increases by approximately 15% under these conditions. Experiments are conducted on various batches of rats, the control batch receiving only propylthiouracil and the other treated batches also receiving the composition of the invention at an oral dose of 100 mg/Kg.
On the 11th day of experimentation blood samples are taken and the free cholesterol and total cholesterol is dosed.

[2] = test system: fatty infiltrations of the liver; experiment: Rabbit autopsy, mark for fatty infiltrations of the liver; settings: mark of 0 to 3; end of test (75 days); 100 mg/Kg orally
Procedure: (§1) The animals divided into several batches of 15 animals are fed with feedstuff enriched in cholesterol (1%). Batch A serves as control and is not treated, the other batches also receive the derivatives to be tested at a dose of 100 mg/Kg, administered orally, suspended in aqueous solution of gum arabic at 5%. On the first day of experimentation and then every 15 days for 75 days biological examinations are conducted on all the animals, during which the various elements causing dyslipemia are dosed; total cholesterol (T), esterified cholesterol (E), free cholesterol (L), esterification ratio (E/T), Kunkel-Phenol test (K1), Kunkelphenol test (K2), Burstein dextrane test (B) and serum lipids (LS).
(§2) At the end of the test all the animals are killed and an autopsy is carried out; a macroscopic examination is then conducted on the livers and aortas and a mark of 0 to 3 is given to the amount of fatty infiltrations of the liver and 0 to 4 to the intensity of aortic atheromatous lesions.

[3] = test system: aortic atheromatous lesions; experiment: Rabbit autopsy, mark for aortic atheromatous lesions; settings: mark of 0 to 4; end of test (75 days); 100 mg/Kg orally
Procedure: as §1, §2

[4] = Rabbit fed cholesterol-enriched (1%) feedstuff, dosage of elements causing dyslipemia; parameters: total cholesterol (T) / esterified cholesterol (E) / Kunkelphenol test (K2) / Burstein dextrane test (B) / serum lipids (LS): unit not given here; settings: 100 mg/Kg orally
Procedure: as §1

Row | Compound | Free cholesterol [1] | Total cholesterol [1] | fatty infiltrations of the liver [2] | aortic atheromatons lesions [3] | Burstein dextrane test (B) ([4]; 1st day) | Kunkel-Phenol test (K1) ([4]; 1st day) | Kunkelphenol test (K2) ([4]; 1st day) | esterification ratio (E/T) ([4]; 1st day) | esterified cholesterol (E) ([4]; 1st day) | free cholesterol (L) ([4]; 1st day) | serum lipids (LS) ([4]; 1st day) | total cholesterol (T) ([4]; 1st day) | Burstein dextrane test (B) ([4]; 30th day) | Kunkel-Phenol test (K1) ([4]; 30th day) | Kunkelphenol test (K2) ([4]; 30th day) | esterification ratio (E/T) ([4]; 30th day) | esterified cholesterol (E) ([4]; 30th day) | free cholesterol (L) ([4]; 30th day) | serum lipids (LS) ([4]; 30th day) | total cholesterol (T) ([4]; 30th day) | further results
1 | c1ccc(CNc2c(-c3ccccc3)sc3ccccc23)cc1 [derivative n° 1, 3-benzylamino-2-phenyl-benzo(b)thiophene] | 0,15 g/l | 0,61 g/l | 1,1 | 1,6 | 10,8 | 7,9 | 12,8 | 0,53 | 0,28 | 0,24 | 1,98 | 0,52 | 21,3 | 18,8 | 25,7 | 0,63 | 0,95 | 0,55 | 2,9 | 1,50 | Burstein dextrane test (B) ([4]; 75th day): 36,2; Kunkel-Phenol test (K1) ([4]; 75th day): 33,3; Kunkelphenol test (K2) ([4]; 75th day): 44,2; esterification ratio (E/T) ([4]; 75th day): 0,62; esterified cholesterol (E) ([4]; 75th day): 1,84; free cholesterol (L) ([4]; 75th day): 1,12; serum lipids (LS) ([4]; 75th day): 4,18; total cholesterol (T) ([4]; 75th day): 2,96
2 | CN(C)c1c(-c2ccccc2)sc2ccccc12 [derivative 29, 3-dimethylamino-2-phenyl-benzo(b)thiophene] | 0,12 g/l | 0,50 g/l | 0,8 | 1,1 | 10,7 | 7,8 | 12,7 | 0,46 | 0,27 | 0,28 | 1,95 | 0,58 | 21,00 | 18,4 | 24,9 | 0,60 | 0,89 | 0,59 | 2,83 | 1,48 | Burstein dextrane test (B) ([4]; 75th day): 35,1; Kunkel-Phenol test (K1) ([4]; 75th day): 32,6; Kunkelphenol test (K2) ([4]; 75th day): 41,5; esterification ratio (E/T) ([4]; 75th day): 0,60; esterified cholesterol (E) ([4]; 75th day): 1,75; free cholesterol (L) ([4]; 75th day): 1,15; serum lipids (LS) ([4]; 75th day): 3,95; total cholesterol (T) ([4]; 75th day): 2,90
3 | CCCCN(C)c1c(-c2ccc(OC)cc2)sc2ccccc12 [derivative 42, 3-(N-butyl,N-methylamino)-2-(4-methoxyphenyl)-benzo(b)thiophene] | 0,12 g/l | 0,54 g/l | 0,9 | 1,5 | 11,2 | 8,1 | 13,7 | 0,50 | 0,26 | 0,25 | 2,05 | 0,51 | 21,2 | 18,9 | 25,5 | 0,62 | 0,90 | 0,55 | 2,91 | 1,45 | Burstein dextrane test (B) ([4]; 75th day): 35,4; Kunkel-Phenol test (K1) ([4]; 75th day): 33,2; Kunkelphenol test (K2) ([4]; 75th day): 45,0; esterification ratio (E/T) ([4]; 75th day): 0,61; esterified cholesterol (E) ([4]; 75th day): 1,85; free cholesterol (L) ([4]; 75th day): 1,09; serum lipids (LS) ([4]; 75th day): 4,05; total cholesterol (T) ([4]; 75th day): 2,94
4 | c1ccc(CN(Cc2ccccc2)c2c(-c3ccccc3)sc3ccccc23)cc1 [derivative 19, 3-dibenzylamino-2-phenyl-benzo(b)thiophene] | 0,14 g/l | 0,58 g/l | 1,2 | 1,3 | 10,9 | 8,0 | 13,1 | 0,50 | 0,28 | 0,29 | 1,97 | 0,57 | 2,3 | 18,4 | 25,3 | 0,64 | 0,95 | 0,52 | 2,84 | 1,47 | Burstein dextrane test (B) ([4]; 75th day): 36,1; Kunkel-Phenol test (K1) ([4]; 75th day): 33,5; Kunkelphenol test (K2) ([4]; 75th day): 46,5; esterification ratio (E/T) ([4]; 75th day): 0,61; esterified cholesterol (E) ([4]; 75th day): 1,79; free cholesterol (L) ([4]; 75th day): 1,12; serum lipids (LS) ([4]; 75th day): 4,08; total cholesterol (T) ([4]; 75th day): 2,91
5 | c1ccc(CN2CCN(c3c(-c4ccccc4)sc4ccccc34)CC2)cc1 [derivative 24, 3-(4-benzylpiperazino)-2-phenyl-benzo(b) thiophene] | 0,14 g/l | 0,56 g/l | 1,00 | 1,4 | 10,8 | 8,2 | 13,0 | 0,50 | 0,28 | 0,27 | 2,00 | 0,55 | 2,1 | 18,8 | 25,3 | 0,65 | 0,98 | 0,52 | 2,87 | 1,50 | Burstein dextrane test (B) ([4]; 75th day): 35,2; Kunkel-Phenol test (K1) ([4]; 75th day): 32,9; Kunkelphenol test (K2) ([4]; 75th day): 48,2; esterification ratio (E/T) ([4]; 75th day): 0,61; esterified cholesterol (E) ([4]; 75th day): 1,80; free cholesterol (L) ([4]; 75th day): 1,11; serum lipids (LS) ([4]; 75th day): 3,98; total cholesterol (T) ([4]; 75th day): 2,91
6 | CCN(CC)c1c(-c2ccc(Cl)cc2)sc2ccccc12 [derivative 37, Hydrochloride of 2-(4-chlorophenyl)-3-diethylamino-benzo(b)thiophene] | 0,13 g/l | 0,58 g/l | 1,00 | 1,3 | 10,5 | 8,2 | 12,9 | 0,47 | 0,27 | 0,30 | 2,00 | 0,57 | 21,3 | 18,8 | 25,1 | 0,62 | 0,97 | 0,58 | 2,85 | 1,55 | Burstein dextrane test (B) ([4]; 75th day): 35,7; Kunkel-Phenol test (K1) ([4]; 75th day): 32,8; Kunkelphenol test (K2) ([4]; 75th day): 46,7; esterification ratio (E/T) ([4]; 75th day): 0,61; esterified cholesterol (E) ([4]; 75th day): 1,80; free cholesterol (L) ([4]; 75th day): 1,14; serum lipids (LS) ([4]; 75th day): 4,15; total cholesterol (T) ([4]; 75th day): 2,94
